Results: article PMC5933261, “A phase 1 dose-escalation study of veliparib with bimonthly FOLFIRI in patients with advanced solid tumours” (British Journal of Cancer, 2018)

Tests used:
[1] = Pharmacokinetics of FOLFIRI components with and without veliparib (relative bioavailability); conditions: for 90% CIs for the relative bioavailability (Cmax and AUCt): presence (cycle 1 day 15) vs absence (cycle 1 day 1) of veliparib; for Cmax: human, plasma, intravenous, central value
Description: Treatment-emergent adverse events (TEAEs) were assessed from the time of study drug administration until 30 days following discontinuation of study drug. TEAEs were assessed according to the National Cancer Institute Common Terminology Criteria for Adverse Events version 4.0. In dose-escalation cohorts, blood samples were collected on day 15 of cycle 1 for veliparib PK, and on days 1 and 15 of cycle 1 for PK assessment of the FOLFIRI components irinotecan, SN-38, folinic acid (leucovorin), and 5-FU. Exploratory efficacy end points included objective response rate (ORR), time to disease progression (TTP), duration of overall response (DOR), and ECOG performance status. Objective response rate included confirmed complete response (CR) and partial response (PR). Objective response rate evaluation was based on Response Evaluation Criteria in Solid Tumours version 1.1. Objective response rate was calculated for all patients with one or more measurable lesions at baseline. Time to disease progression was defined as the number of days from the date the patient started study drug to the date of the patient’s disease progression. Duration of overall response was defined as the number of days from the day criteria were met for CR or PR (whichever was recorded first) to the date that PD was objectively documented. If a patient was still responding, the patient’s data were censored at the date of the last study visit at which a tumour assessment was performed. Analyses of change and/or percentage change from baseline for tumour size were performed for each scheduled post-baseline visit and for the final visit. ECOG performance status was assessed at all visits, with descriptive statistics summarised for each assessment. In addition, a mean change from baseline to each assessment time was summarised.
The sample size was based on clinical justification. No specific statistical hypothesis tests were planned, with descriptive statistics used for the analysis of safety, PK, and tumour response data. The study population for all safety and preliminary efficacy analyses included patients who received one or more doses of study medication. Data from parts 1–3 of the dose-escalation cohort were combined for assessment of the effect of veliparib on the PK of irinotecan, SN-38, and folinic acid. Linear mixed effects models were performed on natural logarithmically transformed maximum plasma concentration (Cmax) and area under the plasma or serum concentration-time curve (AUC) to compare exposure of irinotecan, SN-38, and folinic acid with and without the administration of veliparib. Point estimates and the corresponding 90% confidence intervals (CIs) of the ratio of central values with and without veliparib administration were calculated.

[2] = tested on: patients with advanced solid tumours; conditions: human, in vivo
Description: This phase 1 open-label, multicentre, dose-escalation, and safety expansion study evaluated veliparib in combination with bimonthly FOLFIRI in patients with advanced solid tumours. The primary objectives were to determine the maximum tolerated dose (MTD) and establish the recommended phase 2 dose (RP2D) of the combination therapy. Secondary objectives were to assess the safety and tolerability, PK profile, and exploratory efficacy of the combination for each of the FOLFIRI regimens. Patients received veliparib and bimonthly FOLFIRI in 28-day cycles. Veliparib was administered on days 15–19 in cycle 1 and on days 1–5 and 15–19 in subsequent cycles (Fig. 1). Patients with stable disease or better status could continue veliparib and bimonthly FOLFIRI at the investigator’s discretion until progressive disease (PD), unacceptable toxicity, or FOLFIRI discontinuation. The trial was registered with the ClinicalTrials.gov registry (NCT01123876) and was approved by appropriate independent ethics committees/institutional review boards prior to initiation. The study was performed in accordance with the 1964 Declaration of Helsinki and its later amendments. Written informed consent was obtained from all patients before study enrollment.
Dose escalation occurred in three parts to evaluate the MTD/RP2D of three different bimonthly FOLFIRI regimens in combination with veliparib (Fig. 1). A minimum of three patients per dose level were included for dose-toxicity modeling. In part 1, dose escalation began with veliparib twice daily (BID) on days 15–19 of cycle 1 (to allow the determination of single-agent PK for irinotecan, the active metabolite of irinotecan (SN-38), folinic acid, and 5-FU on cycle 1 day 1). In parts 2 and 3, dose escalation began with veliparib BID on day 15 of cycle 1. The differences in the dosing schedules of parts 1, 2, and 3 relate to dosing of irinotecan and 5-FU, and are detailed in Fig. 1. In all parts, veliparib continued to be administered on days 1–5 and 15–19 of each subsequent 28-day cycle. […]

[3] = tested on: platinum-sensitive relapsed ovarian cancer and a BRCA1/2 mutation; design: method as in PMID 28754483; conditions: maintenance treatment, vs placebo; cited from earlier work
[4] = FOLFIRI + veliparib, cycle 1 day 15

AUCt, central value, test [1, 4] | Cmax, central value, test [1, 4] | AUCt, central value, reference ([1]; FOLFIRI alone, cycle 1 day 1) | Cmax, central value, reference ([1]; FOLFIRI alone, cycle 1 day 1) | Compound | 90% CIs for the relative bioavailability (Cmax and AUCt) [1] | also measured
– | – | – | – | O=c1[nH]cc(F)c(=O)[nH]1 [5-FU, 5-fluorouracil] | – | Median ratio of 5-FU concentrations, cycle 1 day 15 to cycle 1 day 1 ([1]; 2 h after the start of infusion): 1.03; Median ratio of 5-FU concentrations, cycle 1 day 15 to cycle 1 day 1 ([1]; 24 h after the start of infusion): 0.95; Tolerability of 400 mg/m^2 bolus 5-FU dose [2]: not tolerated
172200 ng·h/mL | 39860 ng/mL | 180400 ng·h/mL | 41870 ng/mL | Nc1nc2c(c(=O)[nH]1)N(C=O)[C@H](CNc1ccc(C(=O)N[C@@H](CCC(=O)O)C(=O)O)cc1)CN2 [(R)-Leucovorin, dextroleucovorin] | within the pre-established boundaries of 0.80 to 1.25 | –
28470 ng·h/mL | 13270 ng/mL | 29360 ng·h/mL | 14220 ng/mL | Nc1nc(=O)c2c([nH]1)NC[C@H](CNc1ccc(C(=O)N[C@@H](CCC(=O)O)C(=O)O)cc1)N2C=O [(S)-Leucovorin, levoleucovorin] | within the pre-established boundaries of 0.80 to 1.25 | –
– | – | – | – | CCc1c2c(nc3ccc(OC(=O)N4CCC(N5CCCCC5)CC4)cc13)-c1cc3c(c(=O)n1C2)COC(=O)[C@]3(O)CC [Irinotecan, irinotecan] | within the pre-established boundaries of 0.80 to 1.25 | AUC0–24, central value, reference ([1]; FOLFIRI alone, cycle 1 day 1): 10620 ng·h/mL; Cmax ([1]; reference, FOLFIRI alone, cycle 1 day 1): 1780 ng/mL; Cmax ([1]; test, FOLFIRI + veliparib, cycle 1 day 15): 1790 ng/mL
– | – | – | – | O=C(c1cc(Cc2n[nH]c(=O)c3ccccc23)ccc1F)N1CCN(C(=O)C2CC2)CC1 [olaparib] | – | Median PFS [3]: 19.1 months

Compound | AUCt, central value, test [1, 4] | Cmax, central value, test [1, 4] | AUCt, central value, reference ([1]; FOLFIRI alone, cycle 1 day 1) | Cmax, central value, reference ([1]; FOLFIRI alone, cycle 1 day 1) | 90% CIs for the relative bioavailability (Cmax and AUCt) [1] | also measured
CCc1c2c(nc3ccc(O)cc13)-c1cc3c(c(=O)n1C2)COC(=O)[C@]3(O)CC [SN-38] | 157.8 ng·h/mL | 17.65 ng/mL | 157.9 ng·h/mL | 18.31 ng/mL | within the pre-established boundaries of 0.80 to 1.25 | –
